Data taken from PMC3547949, “The Immunosuppressive Agent Mizoribine Monophosphate Is an Inhibitor of the Human RNA Capping Enzyme” (PLoS ONE, 2013).
Read-outs that look alike come from different tables or passages of the source.

Columns and labels:
[1] = target: T1, human RNA capping enzyme (HCE) (Homo sapiens, UniProt O60942); assay: Complete RNA capping reaction (RTase+GTase) of a 5′-triphosphate RNA; type: biochemical
T1 construct: full-length bifunctional HCE protein (amino acid 1–597); 6-His (N); made in house; host or cells: Escherichia coli BL21(DE3), pET28a
Method: Reaction mixtures containing 5 µM [α-^32P]GTP, 5 µM of 5′-triphosphate RNA, 0.1 µM HCE, 50 mM Tris-HCl, pH 7.5, 5 mM MgCl2, 500 µM DTT, 0.5 ng/µl pyrophosphatase (Roche), and 1 U of RNAse Out (Invitrogen) were incubated for 15 min at 37°C. Reactions were stopped by the addition of 20 µl of phenol-chloroform. 10 µl of loading dye (97% formamide) was added to the aqueous phase and submitted to electrophoresis on a denaturing 10% polyacrylamide gel. Formation of the ^32P-radiolabeled GpppRNA was quantified with a PhosphorImager.
In order to investigate if MZP could inhibit the RNA capping reaction, we initially addressed its impact on the complete RNA capping reaction (RTase+GTase). A cold 5′-triphosphate RNA was incubated in the presence of HCE, [α-^32P]GTP, magnesium and increasing concentrations of MZP. […] To ensure that the inhibition by MZP was specific, the reaction was performed in the presence of increasing concentrations of GMP which is chemically related to MZP.

HCE GTase activity [2] = assay: Complete two-step RNA guanylyltransferase (GTase) reaction on 5′-diphosphate RNA; type: biochemical, human; conditions: complete GTase reaction; HCE vs D1R, A103R, Ceg1
HCE GTase activity [3] = target: T2, HCE GTase activity (Homo sapiens, UniProt O60942); assay: as above; type: biochemical
T2 construct: full-length bifunctional HCE protein (amino acid 1–597); 6-His (N); made in house; host or cells: Escherichia coli BL21(DE3), pET28a

HCE RTase activity = target: T3, HCE RTase activity (Homo sapiens, UniProt O60942); assay: RNA triphosphatase (RTase) assay; type: biochemical; conditions: MZP up to 10 mM, full-length HCE
T3 construct: full-length bifunctional HCE protein (amino acid 1–597); 6-His (N); made in house; host or cells: Escherichia coli BL21(DE3), pET28a
Method: Reaction mixtures containing 50 mM Tris-HCl, pH 7.5, 5 mM MgCl2, 500 µM DTT, 3 µM of γ-^32P-radiolabeled 5′-triphosphate RNA substrate (32 nt), 0.1 µM HCE, and various concentration of MZP (as indicated) were incubated for 10 min at 37°C. The reactions were stopped by the addition of 2 µl of 5 M formic acid. Aliquots of each sample were analyzed on polyethyleneimine-cellulose thin-layer chromatography (TLC) plate, and developed with 0.5 M LiCl and 1 M formic acid. The release of ^32Pi was quantified by scanning the TLC plates with a PhosphorImager.
We next investigated the susceptibility of the RTase domain of HCE to MZP inhibition. To specifically monitor the effect of MZP on the RTase activity, a γ-^32P-radiolabeled 5′-triphosphate RNA was incubated with HCE and magnesium. RTase activity was monitored through the analysis of the ^32Pi product released from the radiolabeled RNA by TLC and autoradiography.

HCE [4] = target: T4, HCE (Homo sapiens, UniProt O60942); assay: GMP transfer on a 5′-diphosphate RNA, second GTase step; type: biochemical; conditions: single turnover
T4 construct: full-length bifunctional HCE protein (amino acid 1–597); 6-His (N); made in house; host or cells: Escherichia coli BL21(DE3), pET28a
Method: Formation of the enzyme-GMP complex was initially performed for 15 min at 37°C in a buffer containing 1.5 µM [α-^32P]GTP, 1 µM HCE, 70 mM Tris-HCl, pH 7.5, 7.5 mM MgCl2, 70 µM DTT, 0.7 ng/µl pyrophosphatase (Roche), and 1 U of RNAse Out (Invitrogen). The transfer reaction was then initiated by adding a 5′-diphosphate RNA (32 nt) to a final concentration of 0.5 µM with various concentration of MZP (as indicated). After 30 sec at 37°C, the transfer reaction was stopped by the addition of 20 µl of phenol-chloroform. 10 µl of loading dye (97% formamide) was added to the aqueous phase and submitted to electrophoresis on a denaturing 10% polyacrylamide gel. The formation of the ^32P-radiolabeled GpppRNA was quantified with a PhosphorImager.
We next investigated if the second step of the GTase reaction could be impaired by MZP. EpG complex formation was allowed to initially form upon incubation of HCE with excess [α-^32P]GTP, magnesium and pyrophosphatase. Next, various concentrations of MZP and a cold 5′-diphosphate RNA were added to initiate the transfer of the [α-^32P]GMP moiety onto the RNA in single turnover condition.

Ceg1 [5] = target: T5, Ceg1 (Saccharomyces cerevisiae, UniProt Q01159); assay: Enzyme-GMP (EpG) complex formation, yeast GTase; type: biochemical; conditions: GTase first step, compared with other GTases
T5 sequence (Q01159 1-459): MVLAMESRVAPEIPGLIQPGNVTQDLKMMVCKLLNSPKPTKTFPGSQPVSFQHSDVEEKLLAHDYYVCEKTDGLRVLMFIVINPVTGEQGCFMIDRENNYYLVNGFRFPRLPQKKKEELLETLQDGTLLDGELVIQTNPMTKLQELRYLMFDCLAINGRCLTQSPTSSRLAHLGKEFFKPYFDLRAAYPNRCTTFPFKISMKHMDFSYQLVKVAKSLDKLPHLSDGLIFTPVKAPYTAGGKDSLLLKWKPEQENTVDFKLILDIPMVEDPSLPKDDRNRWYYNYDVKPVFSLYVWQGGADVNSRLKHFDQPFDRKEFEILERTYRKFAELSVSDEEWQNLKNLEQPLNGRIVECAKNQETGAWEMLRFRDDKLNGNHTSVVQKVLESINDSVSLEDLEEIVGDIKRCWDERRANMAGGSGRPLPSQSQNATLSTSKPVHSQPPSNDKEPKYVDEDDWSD

D1R [6] = target: T6, D1R (Vaccinia virus, UniProt P04298); assay: Enzyme-GMP (EpG) complex formation, vaccinia virus GTase; type: biochemical
HCE [7] = target: T4, HCE; assay: MZP transfer onto an acceptor RNA (cap donor substrate test); type: biochemical; conditions: 2 mM MZP, 2 h 37°C
Method: Reaction mixtures containing 50 mM Tris-HCl, pH 7.5, 5 mM MgCl2, 500 µM DTT, 0.7 ng/µl pyrophosphatase (Roche), and 1 U of RNAse Out (Invitrogen), 1 µM of 5′-diphosphate RNA substrate (32 nt) harboring a α-^32P-radiolabeled 5′-phosphate, 0.2 µM HCE were incubated in absence or in presence of 2 mM GTP or MZP for 2 h at 37°C. The reaction pH was adjusted to 5.2 with 50 mM NaOAc followed by the addition of 5 µg of Nuclease P1 and incubation at 37°C for 60 min. The digestion were further adjusted with 50 mM Tris-HCl to pH 8.0, and digested with 1 U of alkalie phosphatase (Roche) for 30 min at 37°C. The reaction products were analyzed by thin-layer chromatography (TLC) on a polyethyleneimine-cellulose plate developed with 0.4 M ammonium sulfate.
Supplementary file pone.0054621.s002.tif: Figure S2 MZP as a potential cap donor substrate for HCE. A 5′-diphosphate acceptor RNA initiating with a [α-^32P] guanosine was incubated in absence (lane 1) or in presence of MZP (lane 2) or GTP (lane 3) and HCE. The capping reaction was sequentially submitted to nuclease P1 then alkaline phosphatase prior to analysis by TLC on a polyethyleneimine-cellulose plate. An autoradiogram of the plate is shown. The locations of the origin and GpppG product are indicated by arrows (right). (TIF) Click here for additional data file.

HCE [8] = target: T4, HCE; assay: Enzyme-GMP (EpG) complex formation, first GTase step; type: biochemical
Method: The enzyme-GMP complex formation assays were carried out for 3 min at 37°C in a buffer containing 1 µM [α-^32P]GTP, 4 µM HCE, 50 mM Tris-HCl, pH 7.5, 5 mM MgCl2, 500 µM DTT, 0.5 ng/µl pyrophosphatase (Roche), and various concentration of MZP (as indicated). The reactions were stopped by the addition of 5 µl of loading dye (50 mM EDTA, 2% β-mercaptoethanol, 1% SDS) and analyzed on a 12% polyacrylamide gel containing 0.1% SDS. The formation of the radiolabeled HCE-[α-^32P]GMP covalent complex was quantified with a PhosphorImager. Similar experiments were conducted using only the GTase domain of HCE (HCE-G229–597). Alternatively, equimolar concentrations of MgCl2 to MZP were added to the reaction in addition to the base 5 mM MgCl2 from the buffer (MZP✯Mg^2+).
We next set out to identify which step (if any) of the GTase reaction is more susceptible to MZP inhibition. In order to investigate the inhibitory potency of MZP on HCE-GMP complex formation (first step), HCE was incubated with [α-^32P]GTP, magnesium and increasing concentrations MZP. […] The formation of the EpG covalent complex in single turnover condition was analyzed by SDS-PAGE and quantified by phosphorimaging. […] Nevertheless, MZP inhibition of the EpG complex formation is weak and could not be solely responsible for the global inhibitory potency of MZP.

A103R [9] = target: T7, A103R (Paramecium bursaria Chlorella virus 1, UniProt Q84424); type: biochemical, Chlorella virus (PBCV-1)
Ceg1 [10] = target: T5, Ceg1; assay: Complete GTase reaction, yeast GTase; type: biochemical; conditions: 0,5 µM Ceg1
A103R [11] = target: T7, A103R; type: biochemical, Chlorella virus (PBCV-1); remark: listed apart in the source
[12] = test system: HCE-G229–597 (GTase domain of HCE); assay: Complete GTase reaction with isolated GTase domain; type: biochemical, human
D1R [13] = target: T6, D1R; assay: Complete GTase reaction, vaccinia virus GTase; type: biochemical
[14] = parameters: method as in PMID 19336917, PMID 15773958, PMID 11896891, PMID 12036371; conditions: cited from earlier work
HEK 293T cells = assay: Inhibition of mRNA cap formation in cells (firefly luciferase reporter); conditions: 40 µM or 120 µM mizoribine, all cell lines, versus untreated cells

T4 sequence (O60942 whole entry): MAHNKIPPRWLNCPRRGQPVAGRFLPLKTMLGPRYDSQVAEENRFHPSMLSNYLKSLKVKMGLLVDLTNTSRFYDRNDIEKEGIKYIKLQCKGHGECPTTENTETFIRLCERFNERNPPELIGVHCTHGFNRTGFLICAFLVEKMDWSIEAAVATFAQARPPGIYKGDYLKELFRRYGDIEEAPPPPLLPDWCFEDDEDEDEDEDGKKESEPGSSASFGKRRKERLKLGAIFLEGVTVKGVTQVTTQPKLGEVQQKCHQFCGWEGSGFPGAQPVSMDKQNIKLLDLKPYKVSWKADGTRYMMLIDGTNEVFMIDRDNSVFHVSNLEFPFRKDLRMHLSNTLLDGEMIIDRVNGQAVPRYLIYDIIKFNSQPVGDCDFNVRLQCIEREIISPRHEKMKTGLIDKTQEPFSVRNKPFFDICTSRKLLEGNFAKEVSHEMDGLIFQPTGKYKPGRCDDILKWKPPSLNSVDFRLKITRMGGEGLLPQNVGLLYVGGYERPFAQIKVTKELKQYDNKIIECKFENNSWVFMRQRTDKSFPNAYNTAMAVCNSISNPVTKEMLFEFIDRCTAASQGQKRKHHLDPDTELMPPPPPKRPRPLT
T1 sequence (O60942 whole entry): as above
T2 sequence (O60942 whole entry): as above
T7 sequence (Q84424 whole entry, stated change not applied): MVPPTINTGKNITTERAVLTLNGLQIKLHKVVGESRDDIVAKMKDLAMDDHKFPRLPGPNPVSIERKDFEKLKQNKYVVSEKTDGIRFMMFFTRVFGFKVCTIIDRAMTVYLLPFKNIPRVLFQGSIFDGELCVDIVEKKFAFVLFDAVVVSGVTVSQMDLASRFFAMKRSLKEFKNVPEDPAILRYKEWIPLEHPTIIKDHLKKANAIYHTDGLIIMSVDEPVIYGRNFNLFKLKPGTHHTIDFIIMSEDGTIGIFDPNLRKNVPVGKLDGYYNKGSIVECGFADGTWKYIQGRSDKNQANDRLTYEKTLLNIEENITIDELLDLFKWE
T3 sequence (O60942 whole entry): as the sequence (O60942 whole entry) above

## Nc1nc2c(ncn2[C@@H]2O[C@H](COP(=O)(O)O)[C@@H](O)[C@H]2O)c(=O)[nH]1 [GMP]
[1]; GMP concentrations as high as 10 mM
  reduction of RNA capping: ≤ 25%

## NC(=O)c1ncn([C@@H]2O[C@H](COP(=O)(O)O)[C@@H](O)[C@H]2O)c1O [MZP, Mizoribine monophosphate]
HCE GTase activity [2]
  difference in susceptibility, HCE versus other GTases: 5-to 25 fold
HCE GTase activity [3]; Lineweaver-Burk, Km for GTP independent of MZP concentration
  mechanism of inhibition, complete GTase reaction: non-competitive
HCE GTase activity [3]; steady-state, 5′-diphosphate RNA, full-length HCE
  IC50: 80 µM
HCE RTase activity
  effect on RTase activity: does not affect
HCE [4]
  impact on GMP transfer to acceptor RNA (second GTase step): only has a minor impact
Ceg1 [5]
  inhibition of EpG formation: slightly less affected
D1R [6]
  IC50: 3000 µM
[1]; 0.1 µM HCE, 5 µM GTP, 5 µM 5′-triphosphate RNA, 5 mM MgCl2, 15 min 37°C
  IC50: 150 µM
HCE [7]
  use as substrate and transfer onto acceptor RNA: not able to use the MZP as a substrate
HCE [8]; Lineweaver-Burk, maximal velocity unaffected by MZP
  mechanism of inhibition, EpG formation: competitive
HCE [8]; single turnover, 4 µM HCE, 1 µM GTP, 3 min 37°C
  IC50: 3000 µM
A103R [9]
  IC50: 750 µM
Ceg1 [10]
  IC50: > 2000 µM
A103R [11]
  IC50: 2000 µM
[12]
  decrease in potency versus full-length HCE: 10 fold
D1R [13]
  IC50: 500 µM

## NC(=O)c1ncn([C@@H]2O[C@H](CO)[C@@H](O)[C@H]2O)c1O [mizoribine]
[14]
  binding to serum proteins: 2.3%
HEK 293T cells
  effect on reporter protein expression: global reduction in protein expression
